Laboratory results taken from PubChem BioAssay (NCI).
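Interpolation was linear, between the two tested concentrations surrounding the appropriate level; five concentrations were tested over 48 hours in 96-well plates. GI50: concentration for 50% inhibition of growth. TGI denotes the concentration required for complete inhibition of growth.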

Legend:
Experiment in all cases: DTP human tumour cell line panel, 48 h
IGROV1 ovarian = system: IGROV1 ovarian
MDA-MB-435 = system: MDA-MB-435
NCI-H226 lung = system: NCI-H226 lung
SF-268 CNS = system: SF-268 CNS
TK-10 renal = system: TK-10 renal
HS 578T breast = system: HS 578T breast
T-47D breast = system: T-47D breast
MOLT-4 leukemia = system: MOLT-4 leukemia
ACHN renal = system: ACHN renal
U251 CNS = system: U251 CNS
COLO 205 colon = system: COLO 205 colon
NCI-H460 lung = system: NCI-H460 lung
M14 melanoma = system: M14 melanoma
MALME-3M melanoma = system: MALME-3M melanoma
RPMI-8226 leukemia = system: RPMI-8226 leukemia
SK-MEL-28 melanoma = system: SK-MEL-28 melanoma
SF-539 CNS = system: SF-539 CNS
SF-295 CNS = system: SF-295 CNS
UACC-257 melanoma = system: UACC-257 melanoma
SR leukemia = system: SR leukemia
HOP-62 NSCLC = system: HOP-62 NSCLC
CCRF-CEM leukemia = system: CCRF-CEM leukemia
SW-620 colon = system: SW-620 colon
CAKI-1 renal = system: CAKI-1 renal
OVCAR-8 ovarian = system: OVCAR-8 ovarian
OVCAR-4 ovarian = system: OVCAR-4 ovarian
UACC-62 melanoma = system: UACC-62 melanoma
SN12C renal = system: SN12C renal
BT-549 breast = system: BT-549 breast
HCT-116 colon = system: HCT-116 colon
HCC-2998 colon = system: HCC-2998 colon
EKVX NSCLC = system: EKVX NSCLC
SNB-19 CNS = system: SNB-19 CNS
KM12 colon = system: KM12 colon
RXF 393 renal = system: RXF 393 renal
NCI-H23 lung = system: NCI-H23 lung
HT29 colon = system: HT29 colon
MDA-MB-231 breast = system: MDA-MB-231 breast
UO-31 renal = system: UO-31 renal
A549 NSCLC = system: A549 NSCLC
HOP-92 NSCLC = system: HOP-92 NSCLC
MCF7 breast = system: MCF7 breast
NCI/ADR-RES ovarian = system: NCI/ADR-RES ovarian
786-0 renal = system: 786-0 renal
SK-MEL-2 melanoma = system: SK-MEL-2 melanoma
A498 renal = system: A498 renal
SK-OV-3 ovarian = system: SK-OV-3 ovarian
HL-60(TB) leukemia = system: HL-60(TB) leukemia
OVCAR-3 ovarian = system: OVCAR-3 ovarian
OVCAR-5 ovarian = system: OVCAR-5 ovarian
HCT-15 colon = system: HCT-15 colon
SK-MEL-5 melanoma = system: SK-MEL-5 melanoma
PC-3 prostate = system: PC-3 prostate
DU-145 prostate = system: DU-145 prostate
SNB-75 CNS = system: SNB-75 CNS
NCI-H522 lung = system: NCI-H522 lung
K-562 leukemia = system: K-562 leukemia
LOX IMVI melanoma = system: LOX IMVI melanoma

COc1cc2cc(Oc3ccc(NC(=O)Nc4cc(C(F)(F)F)cc(C(F)(F)F)c4)cc3)c(C)nc2cc1OCCN1CCCCC1
GI50 (IGROV1 ovarian): 1350 nM | TGI (IGROV1 ovarian): 2790 nM | GI50 (MDA-MB-435): 1780 nM | TGI (MDA-MB-435): 3220 nM | GI50 (NCI-H226 lung): 1700 nM | TGI (NCI-H226 lung): 3960 nM | GI50 (SF-268 CNS): 1690 nM | TGI (SF-268 CNS): 3370 nM | GI50 (TK-10 renal): 2060 nM | TGI (TK-10 renal): 3710 nM | GI50 (HS 578T breast): 1930 nM | TGI (HS 578T breast): 4670 nM | GI50 (T-47D breast): 1850 nM | TGI (T-47D breast): 3770 nM | GI50 (MOLT-4 leukemia): 1730 nM | TGI (MOLT-4 leukemia): 3700 nM | GI50 (ACHN renal): 1630 nM | TGI (ACHN renal): 2990 nM | GI50 (U251 CNS): 1790 nM | TGI (U251 CNS): 3410 nM | GI50 (COLO 205 colon): 1890 nM | TGI (COLO 205 colon): 3620 nM | GI50 (NCI-H460 lung): 1790 nM | TGI (NCI-H460 lung): 3350 nM | GI50 (M14 melanoma): 1680 nM | TGI (M14 melanoma): 3160 nM | GI50 (MALME-3M melanoma): 1590 nM | TGI (MALME-3M melanoma): 3020 nM | GI50 (RPMI-8226 leukemia): 2080 nM | TGI (RPMI-8226 leukemia): 4720 nM | GI50 (SK-MEL-28 melanoma): 1660 nM | TGI (SK-MEL-28 melanoma): 3070 nM | GI50 (SF-539 CNS): 1650 nM | TGI (SF-539 CNS): 3030 nM | GI50 (SF-295 CNS): 1830 nM | TGI (SF-295 CNS): 3380 nM | GI50 (UACC-257 melanoma): 1980 nM | TGI (UACC-257 melanoma): 3970 nM | GI50 (SR leukemia): 1750 nM | TGI (SR leukemia): 5790 nM | GI50 (HOP-62 NSCLC): 1640 nM | TGI (HOP-62 NSCLC): 3300 nM | GI50 (CCRF-CEM leukemia): 2110 nM | TGI (CCRF-CEM leukemia): 4710 nM | GI50 (SW-620 colon): 1790 nM | TGI (SW-620 colon): 3270 nM | GI50 (CAKI-1 renal): 1420 nM | TGI (CAKI-1 renal): 2860 nM | GI50 (OVCAR-8 ovarian): 1870 nM | TGI (OVCAR-8 ovarian): 3720 nM | GI50 (OVCAR-4 ovarian): 1890 nM | TGI (OVCAR-4 ovarian): 3610 nM | GI50 (UACC-62 melanoma): 1820 nM | TGI (UACC-62 melanoma): 3310 nM | GI50 (SN12C renal): 1680 nM | TGI (SN12C renal): 3220 nM | GI50 (BT-549 breast): 1800 nM | TGI (BT-549 breast): 3410 nM | GI50 (HCT-116 colon): 1750 nM | TGI (HCT-116 colon): 3240 nM | GI50 (HCC-2998 colon): 1780 nM | TGI (HCC-2998 colon): 3290 nM | GI50 (EKVX NSCLC): 1810 nM | TGI (EKVX NSCLC): 3440 nM | GI50 (SNB-19 CNS): 1710 nM | TGI (SNB-19 CNS): 3180 nM | GI50 (KM12 colon): 1910 nM | TGI (KM12 colon): 3470 nM | GI50 (RXF 393 renal): 1590 nM | TGI (RXF 393 renal): 3200 nM | GI50 (NCI-H23 lung): 1750 nM | TGI (NCI-H23 lung): 3320 nM | GI50 (HT29 colon): 1830 nM | TGI (HT29 colon): 3370 nM | GI50 (MDA-MB-231 breast): 1520 nM | TGI (MDA-MB-231 breast): 2990 nM | GI50 (UO-31 renal): 1280 nM | TGI (UO-31 renal): 2550 nM | GI50 (A549 NSCLC): 1800 nM | TGI (A549 NSCLC): 3620 nM | GI50 (HOP-92 NSCLC): 1240 nM | TGI (HOP-92 NSCLC): 2570 nM | GI50 (MCF7 breast): 1680 nM | TGI (MCF7 breast): 3430 nM | GI50 (NCI/ADR-RES ovarian): 1680 nM | TGI (NCI/ADR-RES ovarian): 3240 nM | GI50 (786-0 renal): 1710 nM | TGI (786-0 renal): 3250 nM | GI50 (SK-MEL-2 melanoma): 1850 nM | TGI (SK-MEL-2 melanoma): 3570 nM | GI50 (A498 renal): 1750 nM | TGI (A498 renal): 3230 nM | GI50 (SK-OV-3 ovarian): 2040 nM | TGI (SK-OV-3 ovarian): 3900 nM | GI50 (HL-60(TB) leukemia): 2250 nM | TGI (HL-60(TB) leukemia): 4670 nM | GI50 (OVCAR-3 ovarian): 1640 nM | TGI (OVCAR-3 ovarian): 3030 nM | GI50 (OVCAR-5 ovarian): 1630 nM | TGI (OVCAR-5 ovarian): 3020 nM | GI50 (HCT-15 colon): 1620 nM | TGI (HCT-15 colon): 3090 nM | GI50 (SK-MEL-5 melanoma): 1690 nM | TGI (SK-MEL-5 melanoma): 3080 nM | GI50 (PC-3 prostate): 1490 nM | TGI (PC-3 prostate): 2850 nM | GI50 (DU-145 prostate): 1710 nM | TGI (DU-145 prostate): 3080 nM | GI50 (SNB-75 CNS): 1450 nM | TGI (SNB-75 CNS): 2990 nM | GI50 (NCI-H522 lung): 1720 nM | TGI (NCI-H522 lung): 3460 nM | GI50 (K-562 leukemia): 1500 nM | TGI (K-562 leukemia): 3310 nM | GI50 (LOX IMVI melanoma): 1710 nM | TGI (LOX IMVI melanoma): 3170 nM
